According to PubChem BioAssay (NCI):
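Each compound was tested at five concentrations against cells in 96-well plates for 48 hours. GI50 marks 50% less growth. TGI: concentration producing complete growth inhibition.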

Assays:
Assay in all cases: NCI-60 cell line screen, 48 h; in the data active = GI50 below about 0.43 µM; inactive = the rest
NCI-H226 lung = test system: NCI-H226 lung
HS 578T breast = test system: HS 578T breast
MDA-MB-435 = test system: MDA-MB-435
SK-MEL-5 melanoma = test system: SK-MEL-5 melanoma
NCI/ADR-RES ovarian = test system: NCI/ADR-RES ovarian
UACC-62 melanoma = test system: UACC-62 melanoma
HT29 colon = test system: HT29 colon
CCRF-CEM leukemia = test system: CCRF-CEM leukemia
UO-31 renal = test system: UO-31 renal
DU-145 prostate = test system: DU-145 prostate
UACC-257 melanoma = test system: UACC-257 melanoma
SK-MEL-28 melanoma = test system: SK-MEL-28 melanoma
HOP-62 NSCLC = test system: HOP-62 NSCLC
RXF 393 renal = test system: RXF 393 renal
HCT-15 colon = test system: HCT-15 colon
A498 renal = test system: A498 renal
SW-620 colon = test system: SW-620 colon
LOX IMVI melanoma = test system: LOX IMVI melanoma
OVCAR-8 ovarian = test system: OVCAR-8 ovarian
T-47D breast = test system: T-47D breast
HL-60(TB) leukemia = test system: HL-60(TB) leukemia
M14 melanoma = test system: M14 melanoma
SNB-75 CNS = test system: SNB-75 CNS
SF-539 CNS = test system: SF-539 CNS
SN12C renal = test system: SN12C renal
MOLT-4 leukemia = test system: MOLT-4 leukemia
ACHN renal = test system: ACHN renal
CAKI-1 renal = test system: CAKI-1 renal
NCI-H460 lung = test system: NCI-H460 lung
U251 CNS = test system: U251 CNS
NCI-H23 lung = test system: NCI-H23 lung
COLO 205 colon = test system: COLO 205 colon
TK-10 renal = test system: TK-10 renal
IGROV1 ovarian = test system: IGROV1 ovarian
KM12 colon = test system: KM12 colon
SF-295 CNS = test system: SF-295 CNS
OVCAR-5 ovarian = test system: OVCAR-5 ovarian
SF-268 CNS = test system: SF-268 CNS
RPMI-8226 leukemia = test system: RPMI-8226 leukemia
K-562 leukemia = test system: K-562 leukemia
OVCAR-4 ovarian = test system: OVCAR-4 ovarian
NCI-H522 lung = test system: NCI-H522 lung
OVCAR-3 ovarian = test system: OVCAR-3 ovarian
MALME-3M melanoma = test system: MALME-3M melanoma
BT-549 breast = test system: BT-549 breast
786-0 renal = test system: 786-0 renal
SR leukemia = test system: SR leukemia
SK-OV-3 ovarian = test system: SK-OV-3 ovarian
HOP-92 NSCLC = test system: HOP-92 NSCLC
SNB-19 CNS = test system: SNB-19 CNS
A549 NSCLC = test system: A549 NSCLC
MDA-MB-231 breast = test system: MDA-MB-231 breast
MCF7 breast = test system: MCF7 breast
HCC-2998 colon = test system: HCC-2998 colon
HCT-116 colon = test system: HCT-116 colon

COc1ccc2c(CCCCC(c3ccccc3)c3ccccc3)c3[n+](cc2c1OC)CCc1cc2c(cc1-3)OCO2
1.02 µM: TGI (MDA-MB-435)
0.177 µM: TGI (SK-MEL-5 melanoma)
inactive: GI50 (HS 578T breast) 0.536 µM | GI50 (NCI/ADR-RES ovarian) 1.83 µM
3.09 µM: TGI (HS 578T breast)
active: GI50 (NCI-H226 lung) 0.28 µM | GI50 (MDA-MB-435) 0.106 µM | GI50 (SK-MEL-5 melanoma) 0.0451 µM
1.85 µM: TGI (NCI-H226 lung)
7.48 µM: TGI (NCI/ADR-RES ovarian)

[O-]c1c2cc(-[n+]3c(-c4ccccc4)cc(-c4ccccc4)cc3-c3ccccc3)cc1CO[C@@H](c1ccccc1)[C@H](c1ccccc1)OCCOCCO[C@@H](c1ccccc1)[C@H](c1ccccc1)OC2
0.238 µM: TGI (CCRF-CEM leukemia)
> 100 µM: TGI (UO-31 renal)
1.14 µM: TGI (DU-145 prostate)
1.39 µM: TGI (UACC-62 melanoma)
3.12 µM: TGI (HS 578T breast)
0.646 µM: TGI (HT29 colon)

COc1cc(/C=C/C(=O)c2c(-c3ccc(Cl)cc3)nc3sc(C)nn23)cc(OC)c1OC
40.6 µM: TGI (HL-60(TB) leukemia)
inactive: GI50 (UACC-62 melanoma) 5.15 µM | GI50 (UACC-257 melanoma) 16 µM | GI50 (SK-MEL-28 melanoma) > 100 µM | GI50 (NCI-H226 lung) 23.7 µM | GI50 (HT29 colon) 77.7 µM | GI50 (HOP-62 NSCLC) 10.4 µM | GI50 (RXF 393 renal) 17.3 µM | GI50 (HCT-15 colon) 15.8 µM | GI50 (A498 renal) 51.9 µM | GI50 (SW-620 colon) 10.2 µM | GI50 (LOX IMVI melanoma) 18.4 µM | GI50 (HS 578T breast) 24.7 µM | GI50 (OVCAR-8 ovarian) 5.62 µM | GI50 (T-47D breast) 2.56 µM | GI50 (HL-60(TB) leukemia) 5.94 µM | GI50 (M14 melanoma) 55.2 µM | GI50 (SNB-75 CNS) 12.8 µM | GI50 (SF-539 CNS) > 100 µM | GI50 (SN12C renal) 53.9 µM | GI50 (MOLT-4 leukemia) 7.59 µM | GI50 (ACHN renal) 20.8 µM | GI50 (CAKI-1 renal) 54 µM | GI50 (MDA-MB-435) 12.1 µM | GI50 (NCI-H460 lung) > 100 µM | GI50 (CCRF-CEM leukemia) 3.92 µM | GI50 (U251 CNS) 17.1 µM | GI50 (NCI-H23 lung) 24.8 µM | GI50 (COLO 205 colon) 60.8 µM | GI50 (TK-10 renal) 27.1 µM | GI50 (IGROV1 ovarian) 70.1 µM | GI50 (SK-MEL-5 melanoma) 3.1 µM | GI50 (KM12 colon) 21.6 µM | GI50 (NCI/ADR-RES ovarian) 7.85 µM | GI50 (SF-295 CNS) 30 µM | GI50 (OVCAR-5 ovarian) > 100 µM | GI50 (UO-31 renal) 7.27 µM | GI50 (SF-268 CNS) 24.6 µM | GI50 (RPMI-8226 leukemia) 1.82 µM | GI50 (K-562 leukemia) 4.49 µM | GI50 (OVCAR-4 ovarian) 31.8 µM | GI50 (NCI-H522 lung) 2.94 µM | GI50 (DU-145 prostate) > 100 µM | GI50 (OVCAR-3 ovarian) 35.7 µM | GI50 (MALME-3M melanoma) 25.6 µM | GI50 (BT-549 breast) 7.77 µM | GI50 (786-0 renal) 51.2 µM | GI50 (SR leukemia) 4.9 µM | GI50 (SK-OV-3 ovarian) 66.6 µM | GI50 (HOP-92 NSCLC) 3.48 µM | GI50 (SNB-19 CNS) > 100 µM | GI50 (A549 NSCLC) 49.5 µM | GI50 (MDA-MB-231 breast) 14.3 µM | GI50 (MCF7 breast) 8.81 µM | GI50 (HCC-2998 colon) > 100 µM | GI50 (HCT-116 colon) 15.7 µM
87.7 µM: TGI (CCRF-CEM leukemia)
33.7 µM: TGI (SNB-75 CNS)
15.6 µM: TGI (SK-MEL-5 melanoma)
25.1 µM: TGI (HOP-92 NSCLC)
77.7 µM: TGI (BT-549 breast)
> 100 µM: TGI (UACC-62 melanoma) | TGI (UACC-257 melanoma) | TGI (SK-MEL-28 melanoma) | TGI (NCI-H226 lung) | TGI (HT29 colon) | TGI (HOP-62 NSCLC) | TGI (RXF 393 renal) | TGI (HCT-15 colon) | TGI (A498 renal) | TGI (SW-620 colon) | TGI (LOX IMVI melanoma) | TGI (HS 578T breast) | TGI (OVCAR-8 ovarian) | TGI (M14 melanoma) | TGI (SF-539 CNS) | TGI (SN12C renal) | TGI (MOLT-4 leukemia) | TGI (ACHN renal) | TGI (CAKI-1 renal) | TGI (MDA-MB-435) | TGI (NCI-H460 lung) | TGI (U251 CNS) | TGI (NCI-H23 lung) | TGI (COLO 205 colon) | TGI (TK-10 renal) | TGI (IGROV1 ovarian) | TGI (KM12 colon) | TGI (NCI/ADR-RES ovarian) | TGI (SF-295 CNS) | TGI (OVCAR-5 ovarian) | TGI (UO-31 renal) | TGI (SF-268 CNS) | TGI (K-562 leukemia) | TGI (OVCAR-4 ovarian) | TGI (DU-145 prostate) | TGI (OVCAR-3 ovarian) | TGI (MALME-3M melanoma) | TGI (786-0 renal) | TGI (SR leukemia) | TGI (SK-OV-3 ovarian) | TGI (SNB-19 CNS) | TGI (A549 NSCLC) | TGI (MDA-MB-231 breast) | TGI (MCF7 breast) | TGI (HCC-2998 colon) | TGI (HCT-116 colon)
13.5 µM: TGI (T-47D breast)
5.78 µM: TGI (RPMI-8226 leukemia)
8.8 µM: TGI (NCI-H522 lung)
